Where a SMILES comes first, the peptide text is derived from it. Bridges are numbered along the chain shown (N, C = ends). [ ]: non-standard residue; d: D form. The star is where a group is joined. Bip = N[C@@H](Cc1ccc(-c2ccccc2)cc1)C(=O)O; Phe(3-Me) = Cc1cccc(C[C@H](N)C(=O)O)c1; 4Pal = N[C@@H](Cc1ccncc1)C(=O)O; Cha = N[C@@H](CC1CCCCC1)C(=O)O; Cit = NC(=O)NCCC[C@H](N)C(=O)O; Carboxymethyl = O=C(O)C*; Nle = CCCC[C@H](N)C(=O)O; Orn = NCCC[C@H](N)C(=O)O; Dab = NCC[C@H](N)C(=O)O; Dap = NC[C@H](N)C(=O)O; Piv = CC(C)(C)C(=O)*
The compounds below were run against T1, human PD-1 / PD-L1-Ig binding on Jurkat cell line over-expressing human PD-1 (Jurkat-PD-1) (Homo sapiens, UniProt Q15116) (assay: Jurkat-PD-1 Cell Binding High-Content Screening Assay (CBA)). Conditions: Jurkat-PD-1 cells, PE-labeled PD-L1-Ig 20 nM final; read-out: Jurkat HPD1_PDL1 IC50.
T1 construct: expressed in transfected cells; host or cells: Jurkat
T1 sequence (Q15116 25-288): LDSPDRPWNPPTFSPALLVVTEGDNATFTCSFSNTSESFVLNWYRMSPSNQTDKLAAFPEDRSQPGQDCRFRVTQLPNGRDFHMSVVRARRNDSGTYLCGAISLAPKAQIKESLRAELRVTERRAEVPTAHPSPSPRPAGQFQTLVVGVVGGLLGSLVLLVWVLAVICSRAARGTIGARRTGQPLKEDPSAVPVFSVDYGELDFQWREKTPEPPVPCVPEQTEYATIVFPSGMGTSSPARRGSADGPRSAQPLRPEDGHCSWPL
Assay type: cell-based
In short: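 Binding of fluorescent PD-L1-Ig (phycoerythrin linked via the Ig tag, 20 nM final) to PD-1-overexpressing Jurkat cells was imaged after a 2 h, 37° C compound pretreatment and 1 hour ligand incubation.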

| Compound | IC50 |
| --- | --- |
| CCCC[C@@H]1NC(=O)[C@H](CCN)NC(=O)[C@@H](CC(C)C)NC(=O)[C@H](CCCN)NC(=O)[C@H](CCCNC(N)=O)NC(=O)[C@H](Cc2ccc(-c3ccccc3)cc2)NC(=O)[C@H](C(C)C)NC(=O)[C@H](Cc2c[nH]c3ccccc23)NC(=O)[C@H](CC(=O)O)NC(=O)[C@H](Cc2ccc(O)cc2)NC(=O)[C@H](Cc2ccc(OCC(=O)O)cc2)NC(=O)CSC[C@@H](C(=O)N[C@@H](C)C(N)=O)NC(=O)[C@H]([C@@H](C)O)NC(=O)[C@H](C(C)C)NC1=O [Compound 1166] ({CH2CO}-Y(Carboxymethyl)YDWV[Bip][Cit][Orn][dL][Dab][Nle]VTCA-NH2; thioether N-14) | 58.3 nM |
| Cc1cccc(C[C@@H]2NC(=O)[C@H](CC(=O)O)NC(=O)[C@H](Cc3ccc(OCC(=O)O)cc3)NC(=O)[C@H](CN)NC(=O)CSC[C@@H](C(=O)N[C@@H](CCN)C(N)=O)NC(=O)[C@H](CCCN)NC(=O)[C@H](C(C)C)NC(=O)[C@H](CC3CCCCC3)NC(=O)[C@H](CCNC(=O)C(C)(C)C)NC(=O)[C@@H](CC(C)C)NC(=O)[C@H](CCCN)NC(=O)[C@H](Cc3ccc(O)cc3)NC(=O)[C@H](Cc3ccc(-c4ccccc4)cc3)NC(=O)[C@H](Cc3ccc(O)cc3)NC2=O)c1 [Compound 2036] ({CH2CO}-[Dap]Y(Carboxymethyl)D[Phe(3-Me)]Y[Bip]Y[Orn][dL][Dab](Piv)[Cha]V[Orn]C[Dab]-NH2; thioether N-14) | 10 nM |
| CC(C)C[C@@H]1NC(=O)[C@H](CCN)NC(=O)[C@@H](CC(C)C)NC(=O)[C@@H](CC(=O)O)NC(=O)[C@H](C(C)C)NC(=O)[C@H](Cc2ccc(-c3ccccc3)cc2)NC(=O)[C@H](C(C)C)NC(=O)[C@H](Cc2c[nH]c3ccccc23)NC(=O)[C@H](CC(=O)O)NC(=O)[C@H](Cc2ccc(O)cc2)NC(=O)[C@H](CC(N)=O)NC(=O)CSC[C@@H](C(=O)N[C@@H](C)C(N)=O)NC(=O)[C@H]([C@@H](C)O)NC(=O)[C@H](C(C)C)NC1=O [Compound 1021] ({CH2CO}-NYDWV[Bip]V[dD][dL][Dab]LVTCA-NH2; thioether N-14) | 26.8 nM |

The remaining compounds from weak to strong by IC50, led by results:

| IC50 | Compound |
| --- | --- |
| 32.8 nM | CC(C)C[C@H]1NC(=O)[C@H](CCCN)NC(=O)[C@H](C(C)C)NC(=O)[C@H](Cc2ccc(-c3ccccc3)cc2)NC(=O)[C@H](C(C)C)NC(=O)[C@H](Cc2c[nH]c3ccccc23)NC(=O)[C@H](CC(=O)O)NC(=O)[C@H](Cc2ccc(C(=O)O)cc2)NC(=O)[C@H](Cc2ccc(OCC(=O)O)cc2)NC(=O)CSC[C@@H](C(=O)N[C@@H](C)C(N)=O)NC(=O)[C@H]([C@@H](C)O)NC(=O)[C@H](C(C)C)NC(=O)[C@H](CC2CCCCC2)NC(=O)[C@H](CCN)NC1=O [Compound 1691] |
| 29.4 nM | CC(C)C[C@@H]1NC(=O)[C@H](CCN)NC(=O)[C@@H](CC(C)C)NC(=O)[C@H](CCCN)NC(=O)[C@H](CCCNC(N)=O)NC(=O)[C@H](Cc2ccc(-c3ccccc3)cc2)NC(=O)[C@H](C(C)C)NC(=O)[C@H](Cc2c[nH]c3ccccc23)NC(=O)[C@H](CC(=O)O)NC(=O)[C@H](Cc2ccncc2)NC(=O)[C@H](Cc2ccc(OCC(=O)O)cc2)NC(=O)CSC[C@@H](C(=O)N[C@@H](C)C(N)=O)NC(=O)[C@H]([C@@H](C)O)NC(=O)[C@H](C(C)C)NC1=O [Compound 1323] ({CH2CO}-Y(Carboxymethyl)[4Pal]DWV[Bip][Cit][Orn][dL][Dab]LVTCA-NH2; thioether N-14) |
| 12.1 nM | CC(C)C[C@H]1NC(=O)[C@H](CCCN)NC(=O)[C@H](CCCNC(N)=O)NC(=O)[C@H](Cc2ccc(-c3ccccc3)cc2)NC(=O)[C@H](C(C)C)NC(=O)[C@H](Cc2c[nH]c3ccccc23)NC(=O)[C@H](CC(=O)O)NC(=O)[C@H](Cc2ccncc2)NC(=O)[C@H](Cc2ccc(OCC(=O)O)cc2)NC(=O)CSC[C@@H](C(=O)N[C@@H](C)C(N)=O)NC(=O)[C@H]([C@@H](C)O)NC(=O)[C@H](C(C)C)NC(=O)[C@H](CC2CCCCC2)NC(=O)[C@H](CCN)NC1=O [Compound 1326] |

Reference: patent publication US20250163104A1, “MACROCYCLIC IMMUNOMODULATORS” (priority 2021, published 2025)
